Data on eight compounds can be found in ChEMBL document CHEMBL5465560, “Selectivity Literature for EUbOPEN Chemogenomic Library” (2024).

The target of assay [1] is Phosphatidylinositol 4-phosphate 5-kinase type-1 alpha (Homo sapiens) (UniProt Q99755). Kind of assay: Selectivity interaction (KinomeScan (DiscoverX)) EUB0001079a PIP5K1A. Particulars: at 1 µM.
In assay [2] the target is Homeodomain-interacting protein kinase 3 (Homo sapiens, UniProt Q9H422). Kind of assay: Selectivity interaction (KinomeScan (DiscoverX)) EUB0000092b HIPK3. Particulars: at 10 µM.
Chain of Homeodomain-interacting protein kinase 3 (Q9H422 whole entry, looked up): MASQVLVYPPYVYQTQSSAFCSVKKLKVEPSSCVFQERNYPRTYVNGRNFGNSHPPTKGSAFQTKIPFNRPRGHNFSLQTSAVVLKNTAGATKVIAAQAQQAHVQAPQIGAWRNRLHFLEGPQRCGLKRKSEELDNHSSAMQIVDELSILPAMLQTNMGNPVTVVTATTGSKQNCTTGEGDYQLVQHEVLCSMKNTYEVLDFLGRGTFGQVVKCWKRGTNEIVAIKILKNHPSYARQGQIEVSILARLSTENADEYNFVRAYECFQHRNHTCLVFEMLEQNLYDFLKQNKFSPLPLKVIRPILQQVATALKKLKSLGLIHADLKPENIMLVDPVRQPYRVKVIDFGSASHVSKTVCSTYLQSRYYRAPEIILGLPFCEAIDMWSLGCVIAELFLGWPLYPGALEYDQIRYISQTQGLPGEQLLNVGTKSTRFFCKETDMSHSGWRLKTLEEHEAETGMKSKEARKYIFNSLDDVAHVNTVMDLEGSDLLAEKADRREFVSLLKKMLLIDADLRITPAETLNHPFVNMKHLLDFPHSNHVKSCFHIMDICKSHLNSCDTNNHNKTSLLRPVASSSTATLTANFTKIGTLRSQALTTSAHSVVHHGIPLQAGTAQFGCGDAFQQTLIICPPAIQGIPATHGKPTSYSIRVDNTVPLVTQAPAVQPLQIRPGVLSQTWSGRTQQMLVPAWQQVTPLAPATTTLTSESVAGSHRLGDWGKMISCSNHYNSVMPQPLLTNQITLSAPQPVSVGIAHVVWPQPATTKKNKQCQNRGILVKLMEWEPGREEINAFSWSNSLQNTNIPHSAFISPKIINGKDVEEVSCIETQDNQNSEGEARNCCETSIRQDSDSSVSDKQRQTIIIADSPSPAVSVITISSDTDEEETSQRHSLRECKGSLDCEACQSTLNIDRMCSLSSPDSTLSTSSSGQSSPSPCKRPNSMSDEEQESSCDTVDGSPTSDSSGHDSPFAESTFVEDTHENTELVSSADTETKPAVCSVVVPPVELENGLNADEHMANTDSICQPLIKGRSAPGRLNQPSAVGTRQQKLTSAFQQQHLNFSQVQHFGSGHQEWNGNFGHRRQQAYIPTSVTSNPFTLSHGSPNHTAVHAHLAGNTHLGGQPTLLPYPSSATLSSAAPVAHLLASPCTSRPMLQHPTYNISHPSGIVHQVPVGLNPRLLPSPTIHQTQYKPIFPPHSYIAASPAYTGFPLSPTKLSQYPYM
Assay [3] deals with T1, Beta-adrenergic receptor kinase 1 (Homo sapiens) (UniProt P25098).
T1 sequence (whole entry): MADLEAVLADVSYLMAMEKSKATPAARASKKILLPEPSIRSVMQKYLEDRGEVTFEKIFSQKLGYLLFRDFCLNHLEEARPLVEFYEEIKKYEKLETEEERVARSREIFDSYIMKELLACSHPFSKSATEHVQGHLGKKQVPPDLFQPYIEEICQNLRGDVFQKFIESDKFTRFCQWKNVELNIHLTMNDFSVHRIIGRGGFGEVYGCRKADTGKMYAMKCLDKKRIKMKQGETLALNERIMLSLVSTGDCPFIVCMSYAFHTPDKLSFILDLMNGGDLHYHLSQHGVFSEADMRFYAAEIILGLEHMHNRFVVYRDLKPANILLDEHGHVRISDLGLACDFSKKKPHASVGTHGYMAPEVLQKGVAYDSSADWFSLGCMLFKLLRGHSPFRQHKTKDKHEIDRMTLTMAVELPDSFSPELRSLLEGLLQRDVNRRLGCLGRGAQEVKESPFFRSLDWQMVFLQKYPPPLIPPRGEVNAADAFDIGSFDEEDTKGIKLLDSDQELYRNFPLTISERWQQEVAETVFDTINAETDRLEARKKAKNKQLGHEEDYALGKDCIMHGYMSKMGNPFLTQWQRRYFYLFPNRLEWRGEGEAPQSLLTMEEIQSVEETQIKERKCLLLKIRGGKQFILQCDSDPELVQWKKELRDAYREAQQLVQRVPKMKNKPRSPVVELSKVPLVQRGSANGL
Kind of assay: Selectivity interaction (KinomeScan (DiscoverX)) EUB0001049a ADRBK1. The following applies: at 1 µM.

Assay [4] addresses T2, Dual specificity mitogen-activated protein kinase kinase 3 (Homo sapiens) (UniProt P46734).
T2 sequence (whole entry): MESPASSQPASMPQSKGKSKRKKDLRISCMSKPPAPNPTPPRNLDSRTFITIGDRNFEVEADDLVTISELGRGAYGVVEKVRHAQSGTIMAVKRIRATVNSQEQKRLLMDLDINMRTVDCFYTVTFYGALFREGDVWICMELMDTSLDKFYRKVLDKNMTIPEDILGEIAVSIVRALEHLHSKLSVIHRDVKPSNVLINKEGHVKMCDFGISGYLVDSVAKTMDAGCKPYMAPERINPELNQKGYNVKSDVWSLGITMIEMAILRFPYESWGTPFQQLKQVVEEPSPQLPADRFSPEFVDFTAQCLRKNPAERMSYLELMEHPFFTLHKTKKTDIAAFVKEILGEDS
Nature of the assay: Selectivity interaction (KinomeScan (DiscoverX)) EUB0000695a MAP2K3. The following applies: at 100 nM.

Assay [5] addresses Interferon-induced, double-stranded RNA-activated protein kinase (Homo sapiens) (UniProt P19525). Nature of the assay: Selectivity interaction (KinomeScan (DiscoverX)) EUB0000695a EIF2AK2. Particulars: at 100 nM.
Assay [6] addresses Mitogen-activated protein kinase kinase kinase 10 (Homo sapiens) (UniProt Q02779). Kind of assay: Selectivity interaction (LanthaScreen Eu Kinase Binding Assay) EUB0001632a MAP3K10. Particulars: at 10 µM. Background: TR-FRET usually uses a lanthanide donor and a delayed reading to cut background.
The target of assay [7] is T3, Sphingosine kinase 2 (Homo sapiens) (UniProt Q9NRA0).
T3 sequence (whole entry): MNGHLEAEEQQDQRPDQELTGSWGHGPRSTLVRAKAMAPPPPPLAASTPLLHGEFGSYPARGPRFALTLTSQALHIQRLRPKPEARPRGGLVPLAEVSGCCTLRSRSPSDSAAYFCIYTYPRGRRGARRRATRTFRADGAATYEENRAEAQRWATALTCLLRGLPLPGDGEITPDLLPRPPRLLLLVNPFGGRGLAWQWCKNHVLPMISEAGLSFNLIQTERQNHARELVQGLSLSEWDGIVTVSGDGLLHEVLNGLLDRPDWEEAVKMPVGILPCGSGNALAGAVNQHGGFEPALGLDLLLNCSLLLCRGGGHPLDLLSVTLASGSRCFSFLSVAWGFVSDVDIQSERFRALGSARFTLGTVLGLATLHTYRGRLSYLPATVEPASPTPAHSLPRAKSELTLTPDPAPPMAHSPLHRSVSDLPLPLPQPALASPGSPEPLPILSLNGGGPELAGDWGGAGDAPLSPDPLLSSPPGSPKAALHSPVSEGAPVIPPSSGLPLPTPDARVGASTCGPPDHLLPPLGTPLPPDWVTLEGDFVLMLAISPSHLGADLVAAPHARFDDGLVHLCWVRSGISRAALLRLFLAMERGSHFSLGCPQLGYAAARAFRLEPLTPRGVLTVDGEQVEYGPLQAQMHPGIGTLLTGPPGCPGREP
Nature of the assay: Selectivity interaction (Kinase panel (Invitrogen)) EUB0000639a SPHK2. Particulars: at 200 nM.

For assay [8], the target named is Serine/threonine-protein kinase 38 (Homo sapiens) (UniProt Q15208). Nature of the assay: Selectivity interaction (ActivX KiNativ screen (kinase selectivity in THP-1 cell lysates)) EUB0000639a STK38. It counts as subcellular. The following applies: lysate, at 0.2 µM.
The subject of assay [9] is Hepatocyte growth factor receptor (Homo sapiens), P08581 [M1250T]. Particulars: at 10 µM.
Assay [10] addresses Dual specificity mitogen-activated protein kinase kinase 1 (Homo sapiens, UniProt Q02750). Kind of assay: Selectivity interaction (KinomeScan (DiscoverX)) EUB0001619a MAP2K1. Particulars: at 1 µM.
Assay [11] deals with T4, Calcium/calmodulin-dependent protein kinase type IV (Homo sapiens) (UniProt Q16566).
T4 sequence (whole entry): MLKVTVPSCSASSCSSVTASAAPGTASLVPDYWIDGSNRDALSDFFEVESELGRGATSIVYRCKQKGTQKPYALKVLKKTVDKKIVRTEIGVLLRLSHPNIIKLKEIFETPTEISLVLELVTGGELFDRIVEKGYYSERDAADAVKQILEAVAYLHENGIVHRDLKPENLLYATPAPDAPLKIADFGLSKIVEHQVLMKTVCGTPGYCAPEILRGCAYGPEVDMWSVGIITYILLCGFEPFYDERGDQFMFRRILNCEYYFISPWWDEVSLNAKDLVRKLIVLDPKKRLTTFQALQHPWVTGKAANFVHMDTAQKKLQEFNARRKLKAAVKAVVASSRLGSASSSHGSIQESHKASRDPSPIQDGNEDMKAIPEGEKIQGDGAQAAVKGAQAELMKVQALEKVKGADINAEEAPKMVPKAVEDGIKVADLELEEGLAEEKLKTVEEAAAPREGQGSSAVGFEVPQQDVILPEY
Nature of the assay: Selectivity interaction (KinomeScan (DiscoverX)) EUB0001619a CAMK4. The following applies: at 1 µM.

For assay [12], the target named is Casein kinase I isoform delta (Homo sapiens, UniProt P48730). Kind of assay: Selectivity interaction (KinomeScan (DiscoverX)) EUB0001619a CSNK1D. Particulars: at 1 µM.
Chain of Casein kinase I isoform delta (P48730 whole entry, looked up, canonical isoform): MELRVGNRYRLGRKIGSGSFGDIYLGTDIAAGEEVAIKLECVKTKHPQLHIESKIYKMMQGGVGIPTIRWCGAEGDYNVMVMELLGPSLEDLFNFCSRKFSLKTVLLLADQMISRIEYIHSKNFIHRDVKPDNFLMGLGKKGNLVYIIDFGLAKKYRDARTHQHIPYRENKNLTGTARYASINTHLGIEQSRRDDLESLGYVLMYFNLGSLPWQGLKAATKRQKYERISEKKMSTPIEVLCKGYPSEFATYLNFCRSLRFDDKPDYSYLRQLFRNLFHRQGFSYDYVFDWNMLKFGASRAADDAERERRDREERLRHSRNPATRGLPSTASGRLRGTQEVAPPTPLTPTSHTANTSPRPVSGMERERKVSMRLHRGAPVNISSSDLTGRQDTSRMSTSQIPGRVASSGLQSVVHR

Structures are written as SMILES.

Chain of Hepatocyte growth factor receptor (Homo sapiens), P08581 [M1250T] (P08581 whole entry M1250T): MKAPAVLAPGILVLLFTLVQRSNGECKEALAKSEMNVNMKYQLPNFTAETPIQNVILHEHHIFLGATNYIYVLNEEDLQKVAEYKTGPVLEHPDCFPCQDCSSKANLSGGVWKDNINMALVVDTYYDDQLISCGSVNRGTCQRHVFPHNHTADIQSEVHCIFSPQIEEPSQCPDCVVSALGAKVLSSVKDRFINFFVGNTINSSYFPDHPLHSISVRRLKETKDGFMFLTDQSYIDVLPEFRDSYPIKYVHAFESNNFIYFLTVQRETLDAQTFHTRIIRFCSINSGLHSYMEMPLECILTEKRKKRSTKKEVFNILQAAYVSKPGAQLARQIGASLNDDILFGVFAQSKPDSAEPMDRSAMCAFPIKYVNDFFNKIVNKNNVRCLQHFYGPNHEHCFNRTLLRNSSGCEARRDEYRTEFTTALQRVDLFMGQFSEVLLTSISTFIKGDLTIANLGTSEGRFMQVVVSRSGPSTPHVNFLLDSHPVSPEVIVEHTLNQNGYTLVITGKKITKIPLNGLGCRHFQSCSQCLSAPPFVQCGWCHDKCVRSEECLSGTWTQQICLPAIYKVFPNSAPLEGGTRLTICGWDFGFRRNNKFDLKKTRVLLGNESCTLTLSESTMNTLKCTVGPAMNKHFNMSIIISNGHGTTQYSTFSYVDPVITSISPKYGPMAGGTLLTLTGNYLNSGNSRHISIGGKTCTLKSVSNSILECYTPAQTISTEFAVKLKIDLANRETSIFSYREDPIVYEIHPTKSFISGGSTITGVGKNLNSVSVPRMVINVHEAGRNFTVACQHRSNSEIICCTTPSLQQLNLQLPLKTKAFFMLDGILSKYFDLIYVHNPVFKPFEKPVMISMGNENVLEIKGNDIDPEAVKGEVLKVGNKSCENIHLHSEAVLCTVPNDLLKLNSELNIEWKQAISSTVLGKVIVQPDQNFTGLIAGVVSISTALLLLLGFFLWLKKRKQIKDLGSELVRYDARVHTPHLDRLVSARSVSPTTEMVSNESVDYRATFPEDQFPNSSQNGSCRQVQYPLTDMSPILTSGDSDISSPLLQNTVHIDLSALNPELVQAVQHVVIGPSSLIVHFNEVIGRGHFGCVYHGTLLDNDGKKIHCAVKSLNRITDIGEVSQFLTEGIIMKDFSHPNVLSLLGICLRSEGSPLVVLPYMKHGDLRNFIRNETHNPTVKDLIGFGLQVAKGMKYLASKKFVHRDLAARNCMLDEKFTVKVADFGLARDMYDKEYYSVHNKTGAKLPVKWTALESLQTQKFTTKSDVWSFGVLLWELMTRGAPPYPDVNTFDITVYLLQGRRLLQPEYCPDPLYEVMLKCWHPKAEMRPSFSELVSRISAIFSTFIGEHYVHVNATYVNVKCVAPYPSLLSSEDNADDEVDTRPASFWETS
Chain of Mitogen-activated protein kinase kinase kinase 10 (Homo sapiens) (Q02779 whole entry, looked up): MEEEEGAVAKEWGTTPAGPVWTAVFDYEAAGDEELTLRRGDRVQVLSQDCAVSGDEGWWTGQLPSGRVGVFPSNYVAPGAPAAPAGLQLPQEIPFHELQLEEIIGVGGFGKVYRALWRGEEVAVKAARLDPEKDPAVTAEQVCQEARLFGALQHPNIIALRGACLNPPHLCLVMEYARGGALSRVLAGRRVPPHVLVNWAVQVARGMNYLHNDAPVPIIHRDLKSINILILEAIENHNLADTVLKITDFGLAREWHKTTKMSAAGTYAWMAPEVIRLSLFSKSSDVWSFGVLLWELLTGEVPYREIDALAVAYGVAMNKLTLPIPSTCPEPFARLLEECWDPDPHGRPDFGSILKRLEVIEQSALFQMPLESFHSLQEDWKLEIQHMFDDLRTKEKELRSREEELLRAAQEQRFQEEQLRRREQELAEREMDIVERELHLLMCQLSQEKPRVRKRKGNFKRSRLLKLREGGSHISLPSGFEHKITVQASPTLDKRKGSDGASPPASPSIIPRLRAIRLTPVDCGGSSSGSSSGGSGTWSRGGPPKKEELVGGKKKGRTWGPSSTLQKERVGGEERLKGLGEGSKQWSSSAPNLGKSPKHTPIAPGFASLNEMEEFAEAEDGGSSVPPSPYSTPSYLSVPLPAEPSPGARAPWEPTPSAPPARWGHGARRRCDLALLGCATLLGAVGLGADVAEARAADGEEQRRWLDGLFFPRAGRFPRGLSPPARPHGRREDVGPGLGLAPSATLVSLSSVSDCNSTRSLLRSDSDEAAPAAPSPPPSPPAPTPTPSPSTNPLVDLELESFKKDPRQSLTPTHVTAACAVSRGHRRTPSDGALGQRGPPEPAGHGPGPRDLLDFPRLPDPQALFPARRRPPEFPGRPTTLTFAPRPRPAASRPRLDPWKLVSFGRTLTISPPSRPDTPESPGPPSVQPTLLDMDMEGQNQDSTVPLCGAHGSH
Chain of Dual specificity mitogen-activated protein kinase kinase 1 (Q02750 whole entry): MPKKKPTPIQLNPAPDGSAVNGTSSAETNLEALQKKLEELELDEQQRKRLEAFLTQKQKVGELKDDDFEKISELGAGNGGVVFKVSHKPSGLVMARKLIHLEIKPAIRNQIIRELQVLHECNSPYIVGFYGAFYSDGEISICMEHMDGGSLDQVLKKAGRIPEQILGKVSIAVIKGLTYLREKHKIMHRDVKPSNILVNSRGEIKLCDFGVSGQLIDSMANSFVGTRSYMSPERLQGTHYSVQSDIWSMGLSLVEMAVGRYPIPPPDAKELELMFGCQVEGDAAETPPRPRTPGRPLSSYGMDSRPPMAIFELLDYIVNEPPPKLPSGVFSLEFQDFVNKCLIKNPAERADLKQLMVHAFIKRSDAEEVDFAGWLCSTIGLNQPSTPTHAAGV
Chain of Phosphatidylinositol 4-phosphate 5-kinase type-1 alpha (Homo sapiens) (Q99755 whole entry): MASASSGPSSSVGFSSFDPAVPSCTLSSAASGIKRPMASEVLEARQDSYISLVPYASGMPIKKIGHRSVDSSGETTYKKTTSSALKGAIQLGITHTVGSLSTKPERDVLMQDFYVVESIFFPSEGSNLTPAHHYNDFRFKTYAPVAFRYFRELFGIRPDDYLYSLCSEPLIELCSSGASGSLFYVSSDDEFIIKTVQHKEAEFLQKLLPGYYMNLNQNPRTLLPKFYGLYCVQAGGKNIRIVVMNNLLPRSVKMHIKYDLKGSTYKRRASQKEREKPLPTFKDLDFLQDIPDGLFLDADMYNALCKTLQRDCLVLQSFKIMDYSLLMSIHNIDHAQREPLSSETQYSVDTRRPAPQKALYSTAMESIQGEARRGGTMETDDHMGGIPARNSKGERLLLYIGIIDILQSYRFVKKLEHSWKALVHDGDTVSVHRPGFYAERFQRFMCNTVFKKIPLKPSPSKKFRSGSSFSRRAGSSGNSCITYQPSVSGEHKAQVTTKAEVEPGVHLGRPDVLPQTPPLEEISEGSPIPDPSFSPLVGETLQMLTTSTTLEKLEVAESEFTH

Consider `Nc1cnc(N2CCc3cc(S(=O)(=O)Nc4c(F)cc(Cl)cc4F)cc(N4CCCC4=O)c32)nc1` [TP-020n], for which, in [1], the % of control was determined as 100%.
In assay [2], `CCC(=O)N1CCN(c2ccc(-n3c(=O)ccc4cnc5ccc(-c6cnc7ccccc7c6)cc5c43)cc2C(F)(F)F)CC1` came in with a % of control of 86%.
As to `COc1cc(Nc2nc(C)cc(-c3cnn4nc(OC)ccc34)n2)cc(C(F)(F)F)c1`, the % of control in [3] is 100%.
In the case of `Cc1cc(F)c(C(=O)Nc2cccc(-c3nncn3C(C)C)n2)cc1-n1cnc(C2CC2)c1`, the % of control in [4] worked out at 89%; in [5], 100%.
For `Cn1cc(-n2cnc3c(NCc4nc5cc(Cl)c(Cl)cc5[nH]4)nc(N4CCOCC4)nc32)cn1`, the % of inhibition in assay [6] was -1.64%.
As to `CC[C@@H]1[C@H](F)C(=O)N[C@@H]1COc1nccc2cc(C(N)=O)c(OC)cc12` [ZIMLOVISERTIB], the % of inhibition is -0.837% in [7] and 22.6% in assay [8].
As for `COCC(=O)NC/C=C/c1ccc2ncnc(Nc3ccc(Oc4ccc(C)nc4)c(C)c3)c2c1` [CP-724714], the % of control in assay [9] was 100%.
Regarding `N#Cc1cccc(-c2c[nH]c3ncnc(N4CCOCC4)c23)c1`, the figures for the % of control in assay [10], in [11] and in assay [12] were 13%, 100% and 100%, respectively.
